# According to patent US8791264B2 (Purdue Pharma L.P., priority 2006, dated 2014):
# pIC50: −log10 of the molar value.
# Target: T1, recombinant rat L-type calcium channel (LTCC) subunits (α1c, α2δ, and β1) (Rattus norvegicus, UniProt P22002)
# T1 construct: expressed in transfected cells
# Assay: FLIPR calcium mobilization assay for L-type calcium channel
# Assay type: cell-based
# Conditions: calcium mobilization in vitro assay; HEK293 cells expressing rat LTCC
# Protocol: Recombinant human embryonal kidney cells (HEK293, ATCC) stably transfected with either N-type calcium channel (NTCC) subunits (α1b, α2δ, and ⊖3) or L-type calcium channel (LTCC) subunits (α1, α2δ, and β1) were routinely cultured in growth medium consisting of Dulbecco's Modified Eagles Medium containing 10% FBS, 100 U/mL penicillin, 100 μg/mL streptomycin, 4 mM L-glutamine, 500 μg/mL geneticin (G418), 20 μg/mL Blasticidin S (InVivogen, San Diego, Calif.) and 500 μg/mL zeocin (InVivogen).
# FLIPR Calcium Mobilization Assay for L-Type Calcium Channel.
# One day prior to performing this assay, HEK293 cells stably expressing recombinant rat L-type calcium channel (LTCC) subunits (α1c, α2δ, and β1) were trypsinized, then seeded on poly-D-lysine-coated 96-well clear-bottom black plates (Becton Dickinson, Franklin Lakes, N.J.) at 75,000 cells/well. On the day of the assay, the plates were washed with LTCC wash buffer (127 mM NaCl, 2 mM MgCl2, 700 μM NaH2PO4, 5 mM CaCl2, 5 mM NaHCO3, 8 mM HEPES, 10 mM glucose, pH 7.4), then loaded with 0.1 mL of LTCC wash buffer containing Fluo-4 (3 μM final concentration, Molecular Probes, Eugene, Oreg.). After 1 hour, the cells were washed with 0.1 mL LTCC wash buffer and resuspended in 0.05 mL LTCC assay buffer (same composition as LTCC wash buffer). Plates were then transferred to a FLIPR^96 for assay. The FLIPR measured basal Fluo-4 fluorescence for 15 seconds, then is added 0.05 mL of each compound tested diluted in LTCC assay buffer at final concentrations ranging from about 846 pM to about 17 μM. Fluo-4 fluorescence was then measured for 5 minutes. 0.1 mL KCl agonist dissolved in LTCC assay buffer was then added to the cells to produce a final concentration of 90 mM KCl, and fluorescence was measured for another 45 seconds. Data were collected over the entire time course and analyzed using Excel, Graph Pad Prism, or an in-house regression analysis software.
row,SMILES,pIC50
1,"O=C(CN1CCC(N(C2CC2)S(=O)(=O)c2cccc(C(F)(F)F)c2)CC1)Nc1cc(Cl)cc(Cl)c1 [Compound 79, 2-{4-[Cyclopropyl-(3-trifluoromethylbenzenesulfonyl)amino]-piperidin-1-yl}-N-(3,5-dichlorophenyl)-acetamide]",< 4.70
2,"Cc1cc(C)cc(NC(=O)CN2CCC(N(C3CC3)S(=O)(=O)c3cccc(C(F)(F)F)c3)CC2)c1 [Compound 80, 2-{4-[Cyclopropyl-(3-trifluoromethylbenzenesulfonyl)amino]-piperidin-1-yl}-N-(3,5-dimethylphenyl)-acetamide]",< 4.70

# Target: T2, N-type calcium channel (NTCC) (Homo sapiens, UniProt Q00975)
# T2 construct: host or cells: IMR32 cells differentiated with dibutyryl cAMP and bromodeoxyuridine
# T2 sequence (Q00975 whole entry): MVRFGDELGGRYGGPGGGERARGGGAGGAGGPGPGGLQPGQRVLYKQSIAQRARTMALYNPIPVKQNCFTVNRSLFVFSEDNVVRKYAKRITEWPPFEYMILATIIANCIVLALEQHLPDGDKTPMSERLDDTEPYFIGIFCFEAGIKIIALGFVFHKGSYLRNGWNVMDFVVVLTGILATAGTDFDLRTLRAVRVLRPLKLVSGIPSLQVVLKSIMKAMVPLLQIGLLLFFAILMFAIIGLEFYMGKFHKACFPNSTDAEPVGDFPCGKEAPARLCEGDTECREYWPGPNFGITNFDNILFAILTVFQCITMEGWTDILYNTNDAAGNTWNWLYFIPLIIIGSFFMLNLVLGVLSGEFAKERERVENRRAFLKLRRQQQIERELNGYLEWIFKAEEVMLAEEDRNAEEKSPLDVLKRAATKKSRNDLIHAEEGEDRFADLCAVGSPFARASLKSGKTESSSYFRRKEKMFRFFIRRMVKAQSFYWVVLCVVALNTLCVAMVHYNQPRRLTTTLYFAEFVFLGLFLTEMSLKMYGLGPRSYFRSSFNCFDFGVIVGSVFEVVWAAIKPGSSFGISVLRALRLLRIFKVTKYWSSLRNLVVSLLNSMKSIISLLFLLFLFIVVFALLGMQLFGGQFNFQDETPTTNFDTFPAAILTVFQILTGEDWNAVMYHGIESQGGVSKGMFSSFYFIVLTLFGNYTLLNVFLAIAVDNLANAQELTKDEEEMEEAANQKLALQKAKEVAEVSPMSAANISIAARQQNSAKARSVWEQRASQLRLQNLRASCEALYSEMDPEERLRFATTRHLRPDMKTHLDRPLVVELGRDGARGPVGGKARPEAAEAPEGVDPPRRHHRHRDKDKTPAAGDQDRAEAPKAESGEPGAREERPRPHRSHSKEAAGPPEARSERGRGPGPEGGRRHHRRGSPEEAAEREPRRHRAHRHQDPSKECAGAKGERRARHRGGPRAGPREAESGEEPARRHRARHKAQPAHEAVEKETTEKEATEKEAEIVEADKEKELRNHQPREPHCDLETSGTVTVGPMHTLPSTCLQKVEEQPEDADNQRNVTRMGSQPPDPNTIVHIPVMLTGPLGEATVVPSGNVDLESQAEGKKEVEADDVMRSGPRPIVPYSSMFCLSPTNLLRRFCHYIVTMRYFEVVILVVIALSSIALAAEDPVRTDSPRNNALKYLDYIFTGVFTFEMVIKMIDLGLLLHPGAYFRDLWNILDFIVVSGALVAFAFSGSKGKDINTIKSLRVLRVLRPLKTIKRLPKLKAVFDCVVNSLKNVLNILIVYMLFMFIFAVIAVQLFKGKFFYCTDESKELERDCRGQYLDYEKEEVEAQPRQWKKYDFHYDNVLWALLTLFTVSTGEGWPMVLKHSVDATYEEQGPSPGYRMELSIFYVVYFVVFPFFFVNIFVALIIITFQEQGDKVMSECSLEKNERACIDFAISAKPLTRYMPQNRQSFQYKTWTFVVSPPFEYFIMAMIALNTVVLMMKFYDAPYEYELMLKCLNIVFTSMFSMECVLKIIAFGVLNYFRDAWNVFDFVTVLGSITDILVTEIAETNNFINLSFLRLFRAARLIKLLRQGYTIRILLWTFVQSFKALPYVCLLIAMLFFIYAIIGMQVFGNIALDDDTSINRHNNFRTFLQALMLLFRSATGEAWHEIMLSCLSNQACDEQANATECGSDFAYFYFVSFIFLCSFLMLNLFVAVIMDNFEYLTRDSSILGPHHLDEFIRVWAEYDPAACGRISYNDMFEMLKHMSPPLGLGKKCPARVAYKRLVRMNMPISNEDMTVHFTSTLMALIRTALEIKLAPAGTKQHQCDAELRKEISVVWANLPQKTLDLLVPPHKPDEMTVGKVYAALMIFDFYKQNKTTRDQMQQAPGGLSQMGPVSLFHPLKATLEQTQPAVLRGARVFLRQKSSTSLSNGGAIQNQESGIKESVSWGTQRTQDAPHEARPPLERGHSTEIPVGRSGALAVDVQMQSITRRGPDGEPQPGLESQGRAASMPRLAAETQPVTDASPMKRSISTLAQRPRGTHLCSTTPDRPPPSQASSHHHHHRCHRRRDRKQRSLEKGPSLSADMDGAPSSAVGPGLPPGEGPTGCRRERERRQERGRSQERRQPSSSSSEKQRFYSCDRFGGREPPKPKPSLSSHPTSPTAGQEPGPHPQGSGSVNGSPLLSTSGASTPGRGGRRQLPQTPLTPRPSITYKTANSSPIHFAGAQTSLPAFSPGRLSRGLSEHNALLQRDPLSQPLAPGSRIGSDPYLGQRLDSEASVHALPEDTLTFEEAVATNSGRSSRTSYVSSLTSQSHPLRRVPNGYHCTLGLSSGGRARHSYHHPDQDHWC
# T2 sequence (P54289 25-956 partner limits assumed): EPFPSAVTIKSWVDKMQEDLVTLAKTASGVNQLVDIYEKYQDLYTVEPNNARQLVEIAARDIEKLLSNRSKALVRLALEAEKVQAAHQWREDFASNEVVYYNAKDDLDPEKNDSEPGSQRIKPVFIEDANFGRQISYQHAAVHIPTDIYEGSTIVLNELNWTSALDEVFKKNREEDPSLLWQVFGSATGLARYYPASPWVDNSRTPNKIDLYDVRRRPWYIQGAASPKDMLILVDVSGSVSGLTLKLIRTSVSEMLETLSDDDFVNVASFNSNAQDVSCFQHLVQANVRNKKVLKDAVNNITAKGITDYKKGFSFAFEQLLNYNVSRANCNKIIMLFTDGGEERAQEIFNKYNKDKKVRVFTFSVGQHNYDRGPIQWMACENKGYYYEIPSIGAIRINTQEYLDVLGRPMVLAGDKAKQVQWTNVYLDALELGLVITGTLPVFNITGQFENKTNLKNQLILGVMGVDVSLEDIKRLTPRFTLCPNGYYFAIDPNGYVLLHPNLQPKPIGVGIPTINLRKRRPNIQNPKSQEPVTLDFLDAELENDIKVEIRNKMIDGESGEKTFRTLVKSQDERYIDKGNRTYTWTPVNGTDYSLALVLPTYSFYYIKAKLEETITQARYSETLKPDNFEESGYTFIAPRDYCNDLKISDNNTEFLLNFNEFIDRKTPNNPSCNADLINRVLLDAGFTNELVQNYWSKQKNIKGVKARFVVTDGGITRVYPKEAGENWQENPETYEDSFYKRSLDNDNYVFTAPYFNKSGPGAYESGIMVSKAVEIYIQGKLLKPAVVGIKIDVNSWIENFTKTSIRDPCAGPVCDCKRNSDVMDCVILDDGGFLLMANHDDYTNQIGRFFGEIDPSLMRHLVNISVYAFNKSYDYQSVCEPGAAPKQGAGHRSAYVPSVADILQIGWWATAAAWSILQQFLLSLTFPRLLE
# T2 sequence (P54289 957-1103 partner limits assumed): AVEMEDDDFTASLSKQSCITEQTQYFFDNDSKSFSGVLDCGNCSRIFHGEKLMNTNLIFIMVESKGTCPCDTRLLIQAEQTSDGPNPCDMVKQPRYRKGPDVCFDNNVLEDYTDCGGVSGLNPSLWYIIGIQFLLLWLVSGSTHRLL
# T2 sequence (P54284 whole entry partner): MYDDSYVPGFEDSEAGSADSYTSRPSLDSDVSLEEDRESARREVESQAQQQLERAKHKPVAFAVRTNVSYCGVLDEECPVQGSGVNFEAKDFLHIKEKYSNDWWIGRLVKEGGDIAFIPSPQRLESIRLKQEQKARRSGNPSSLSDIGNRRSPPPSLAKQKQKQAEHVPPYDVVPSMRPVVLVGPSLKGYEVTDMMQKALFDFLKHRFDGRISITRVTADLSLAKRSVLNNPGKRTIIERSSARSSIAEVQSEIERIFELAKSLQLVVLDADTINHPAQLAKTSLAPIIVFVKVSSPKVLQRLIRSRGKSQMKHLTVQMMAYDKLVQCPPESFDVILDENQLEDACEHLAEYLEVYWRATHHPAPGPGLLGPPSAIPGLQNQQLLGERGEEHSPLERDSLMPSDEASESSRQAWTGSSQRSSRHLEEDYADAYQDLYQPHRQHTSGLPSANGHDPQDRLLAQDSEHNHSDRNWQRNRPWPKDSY
# Assay: FLIPR calcium mobilization assay for N-type calcium channel
# Assay type: cell-based
# Conditions: calcium mobilization in vitro assay; differentiated IMR32 cells
# Protocol: Unless noted otherwise, cell culture reagents were purchased from Mediatech of Herndon, Md. IMR32 cells (American Type Culture Collection, ATCC, Manassas, Va.) were routinely cultured in growth medium consisting of minimum essential medium containing 10% fetal bovine serum (FBS, Hyclone, Logan, Utah), 100 U/mL penicillin, 100 μg/mL streptomycin, 2 mM L-glutamine, 1 mM sodium pyruvate, and 1× MEM non-essential amino acids. 80-90% confluent flasks of cells were differentiated using the following differentiation medium: Growth medium plus 1 mM dibutyryl cyclic AMP (Sigma, St. Louis, Mo.), and 2.5 μM bromodeoxyuridine (Sigma). Cells were differentiated for 8 days by replacing differentiation medium every 2-3 days.
# FLIPR Calcium Mobilization Assay for N-Type Calcium Channel.
# One day prior to performing this assay, differentiated IMR32 cells were treated with 1× CellStripper, and seeded on poly-D-lysine-coated 96-well clear-bottom black plates (Becton Dickinson, Franklin Lakes, N.J.) at 200,000 cells/well. On the day of the assay, the cell plates were washed with IMR32 buffer (127 mM NaCl, 1 mM KCl, 2 mM MgCl2, 700 μM NaH2PO4, 5 mM CaCl2, 5 mM NaHCO3, 8 mM HEPES, 10 mM glucose, pH 7.4), then pre-stimulated with KCl and loaded as follows: 0.05 mL of IMR32 buffer, 0.05 mL of each compound tested diluted in IMR32 buffer containing 20 μM nitrendipine (Sigma), and 0.1 mL KCl dissolved in IMR32 buffer, plus Fluo-4 were added (3 μM final concentration, Molecular Probes, Eugene, Oreg.). Final test compound concentrations ranged from about 846 pM to about 17 μM, final nitrendipine concentration was 5 μM, and final KCl concentration was 90 mM. After 1 hour, the cells were washed twice with 0.05 mL of each compound is tested in nitrendipine-containing IMR32 buffer (no KCl or Fluo-4), and then replaced with 0.1 mL of each compound tested in nitrendipine-containing IMR32 buffer. Plates were then transferred to a Fluorimetric Imaging Plate Reader (FLIPR^96, Molecular Devices, Inc., Sunnyvale, Calif.) for assay. The FLIPR measured basal Fluo-4 fluorescence for 315 seconds (i.e., 5 minutes and 15 seconds), then added 0.1 mL KCl agonist dissolved in IMR32 buffer and measured fluorescence for another 45 seconds. Final test compound concentrations on the cells after FLIPR read ranged from about 846 pM to about 17 μM, final nitrendipine concentration was 5 μM, and final KCl concentration was 90 mM. Data were collected over the entire time course and analyzed using Excel, Graph Pad Prism (version 3.02, Graph Pad, San Diego, Calif.), or an in-house non-linear regression analysis software.
row,SMILES,pIC50
1,"O=C(CN1CCC(N(C2CC2)S(=O)(=O)c2cccc(C(F)(F)F)c2)CC1)Nc1cc(Cl)cc(Cl)c1 [Compound 79, 2-{4-[Cyclopropyl-(3-trifluoromethylbenzenesulfonyl)amino]-piperidin-1-yl}-N-(3,5-dichlorophenyl)-acetamide]",6.07
2,"Cc1cc(C)cc(NC(=O)CN2CCC(N(C3CC3)S(=O)(=O)c3cccc(C(F)(F)F)c3)CC2)c1 [Compound 80, 2-{4-[Cyclopropyl-(3-trifluoromethylbenzenesulfonyl)amino]-piperidin-1-yl}-N-(3,5-dimethylphenyl)-acetamide]",6.30
3,"CN(C1CCN(C(=O)CC(=O)Nc2ccc(F)cc2F)CC1)S(=O)(=O)c1cccc(C(F)(F)F)c1 [Compound 28, N-(2,4-Difluorophenyl)-3-{4-[methyl-(3-trifluoromethylbenzene-sulfonyl)amino]-piperidin-1-yl}-3-oxo-propionamide]",5.31
4,CC(C)N(C1CCN(C(=O)C(N)Cc2cccc3ccccc23)CC1)S(=O)(=O)c1cccc(C(F)(F)F)c1 (stereo not shown) [N-[1-(2-amino-3-naphthalen-1-yl-propionyl)-piperidin-4-yl]-N-isopropyl-3-trifluoromethyl-benzenesulfonamide],5.59
5,"O=C(CC(=O)N1CCC(N(C2CC2)S(=O)(=O)c2cccc(C(F)(F)F)c2)CC1)Nc1ccc(F)cc1F [Compound 27, 3-{4-[Cyclopropyl-(3-trifluoromethylbenzenesulfonyl)amino]-piperidin-1-yl}-N-(2,4-difluorophenyl)-3-oxo-propionamide]",5.88
6,CC(C)N(C1CCN(C(=O)CCNc2cccc(F)c2)CC1)S(=O)(=O)c1cccc(C(F)(F)F)c1 [N-{1-[3-(3-fluoro-phenylamino)-propionyl]-piperidin-4-yl}-N-isopropyl-3-trifluoromethyl-benzenesulfonamide],5.98
7,CN(C1CCN(CC(=O)Nc2nc3ccc(F)cc3s2)CC1)S(=O)(=O)c1cccc(C(F)(F)F)c1 [Compound 65],5.67
8,"CC(C)N(C1CCN(C(=O)CNc2ccc(F)cc2)CC1)S(=O)(=O)c1cccc(C(F)(F)F)c1 [Compound 17, N-{1-[2-(4-Fluorophenylamino)acetyl]-piperidin-4-yl}-N-isopropyl-3-trifluoromethylbenzenesulfonamide]",5.77
9,"CC(C)CNC(=O)CN1CCC(N(C2CC2)S(=O)(=O)c2cccc(F)c2)CC1 [Compound 36, 2-{4-[Cyclopropyl-(3-fluorobenzenesulfonyl)amino]-piperidin-1-yl}-N-isobutylacetamide]",5.10
10,CC(C)CNC(=O)CN1CCC(N(C)S(=O)(=O)c2ccccc2)CC1 [2-[4-(benzenesulfonyl-methyl-amino)-piperidin-1-yl]-N-isobutyl-acetamide],< 4.70
11,"Cc1cccc(C)c1NC(=O)CN1CCC(N(C(C)C)S(=O)(=O)c2cccc(C(F)(F)F)c2)CC1 [Compound 42a, N-(2,6-Dimethylphenyl)-2-{4-[isopropyl-(3-trifluoromethylbenzenesulfonyl)amino]-piperidin-1-yl}-acetamide]",5.95
12,"COc1ccc(CN[C@H](C(=O)N2CCC(N(C(C)C)S(=O)(=O)c3cccc(C(F)(F)F)c3)CC2)C(C)C)cc1 [Compound 88a, (S)—N-Isopropyl-N-{1-[2-(4-methoxybenzylamino)-3-methylbutyryl]-piperidin-4-yl}-3-trifluoromethylbenzenesulfonamide]",5.76
13,C=CCC(N)C(=O)N1CCC(N(C(C)C)S(=O)(=O)c2cccc(C(F)(F)F)c2)CC1 (stereo not shown) [N-[1-(2-amino-pent-4-enoyl)-piperidin-4-yl]-N-isopropyl-3-trifluoromethyl-benzenesulfonamide],5.53
14,"O=C(CN1CCC(N(C2CC2)S(=O)(=O)c2ccc(Cl)cc2)CC1)Nc1ccc(F)cc1 [Compound 49, 2-{4-[(4-Chlorobenzenesulfonyl)cyclopropylamino]-piperidin-1-yl}-N-(4-fluorophenyl)acetamide]",5.88
15,"O=C(CN1CCC(N(C2CC2)S(=O)(=O)c2ccccc2)CC1)Nc1ccc(F)cc1 [Compound 48, 2-[4-(Benzenesulfonylcyclopropylamino)-piperidin-1-yl]-N-(4-fluorophenyl)acetamide]",5.65
16,"O=C(CN1CCC(NS(=O)(=O)c2cccc(C(F)(F)F)c2)CC1)Nc1ccc(C(F)(F)F)c(C(F)(F)F)c1 [N-(3,4-bis-trifluoromethylphenyl)-2-{4-[(3-trifluoromethylbenzenesulfonyl)amino]-piperidin-1-yl}-acetamide]",5.91
17,"COc1ccc(C(F)(F)F)cc1NC(=O)CN1CCC(N(C2CC2)S(=O)(=O)c2cccc(C(F)(F)F)c2)CC1 [Compound 83, 2-{4-[Cyclopropyl-(3-trifluoromethylbenzenesulfonyl)amino]-piperidin-1-yl}-N-(2-methoxy-5-trifluoromethylphenyl)-acetamide]",4.70 to 5.00
18,"CCC(NC1CC1)C(=O)N1CCC(N(C(C)C)S(=O)(=O)c2cccc(C(F)(F)F)c2)CC1 (stereo not shown) [Compound 92, N-[1-(2-Cyclopropylaminobutyryl)-piperidin-4-yl]-N-isopropyl-3-trifluoromethylbenzenesulfonamide]",5.28
19,CC(C)N(C1CCN(C(=O)C2CNC2)CC1)S(=O)(=O)c1cccc(C(F)(F)F)c1 [N-[1-(azetidine-3-carbonyl)-piperidin-4-yl]-N-isopropyl-3-trifluoromethyl-benzenesulfonamide],5.54
20,COc1ccc(NCCC(=O)N2CCC(N(C(C)C)S(=O)(=O)c3cccc(C(F)(F)F)c3)CC2)cc1 [N-isopropyl-N-{1-[3-(4-methoxy-phenylamino)-propionyl]-piperidin-4-yl}-3-trifluoromethyl-benzenesulfonamide],6.00
21,"CC(NCCCn1ccnc1)C(=O)N1CCC(N(C(C)C)S(=O)(=O)c2cccc(C(F)(F)F)c2)CC1 (stereo not shown) [Compound 90, N-{1-[2-(3-Imidazol-1-yl-propylamino)propionyl]-piperidin-4-yl}-N-isopropyl-3-trifluoromethylbenzenesulfonamide]",5.02
22,"Cc1ccc(NC(=O)CN2CCC(N(C(C)C)S(=O)(=O)c3cccc(C(F)(F)F)c3)CC2)cc1 [Compound 42e, 2-{4-[Isopropyl-(3-trifluoromethylbenzenesulfonyl)amino]-piperidin-1-yl}-N-p-tolyl-acetamide]",5.79
23,"Cc1cccc(S(=O)(=O)N(C2CC2)C2CCN(CC(=O)Nc3cc(C(F)(F)F)cc(C(F)(F)F)c3)CC2)c1 [Compound 69, N-(3,5-Bis-trifluoromethylphenyl)-2-{4-[cyclopropyl-(toluene-3-sulfonyl)amino]-piperidin-1-yl}-acetamide]",5.42
